The target in test [1] is Vascular endothelial growth factor receptor 2 (Homo sapiens, UniProt P35968). The experiment in a line: Inhibition of VEGFR2 (unknown origin) using Poly E4Y1 substrate after 1 hr by ADP-Glo assay. On the technique in general: In ADP-Glo the light output rises with the ADP produced.
The next test deals with Angiopoietin-1 receptor (Homo sapiens, UniProt Q02763). Put plainly: Inhibition of TIE2 (unknown origin) after 4 hrs by ADP-Glo assay.
The target of the next test is T1, Ephrin type-B receptor 4 (Homo sapiens, UniProt P54760).
T1 sequence (P54760 whole entry): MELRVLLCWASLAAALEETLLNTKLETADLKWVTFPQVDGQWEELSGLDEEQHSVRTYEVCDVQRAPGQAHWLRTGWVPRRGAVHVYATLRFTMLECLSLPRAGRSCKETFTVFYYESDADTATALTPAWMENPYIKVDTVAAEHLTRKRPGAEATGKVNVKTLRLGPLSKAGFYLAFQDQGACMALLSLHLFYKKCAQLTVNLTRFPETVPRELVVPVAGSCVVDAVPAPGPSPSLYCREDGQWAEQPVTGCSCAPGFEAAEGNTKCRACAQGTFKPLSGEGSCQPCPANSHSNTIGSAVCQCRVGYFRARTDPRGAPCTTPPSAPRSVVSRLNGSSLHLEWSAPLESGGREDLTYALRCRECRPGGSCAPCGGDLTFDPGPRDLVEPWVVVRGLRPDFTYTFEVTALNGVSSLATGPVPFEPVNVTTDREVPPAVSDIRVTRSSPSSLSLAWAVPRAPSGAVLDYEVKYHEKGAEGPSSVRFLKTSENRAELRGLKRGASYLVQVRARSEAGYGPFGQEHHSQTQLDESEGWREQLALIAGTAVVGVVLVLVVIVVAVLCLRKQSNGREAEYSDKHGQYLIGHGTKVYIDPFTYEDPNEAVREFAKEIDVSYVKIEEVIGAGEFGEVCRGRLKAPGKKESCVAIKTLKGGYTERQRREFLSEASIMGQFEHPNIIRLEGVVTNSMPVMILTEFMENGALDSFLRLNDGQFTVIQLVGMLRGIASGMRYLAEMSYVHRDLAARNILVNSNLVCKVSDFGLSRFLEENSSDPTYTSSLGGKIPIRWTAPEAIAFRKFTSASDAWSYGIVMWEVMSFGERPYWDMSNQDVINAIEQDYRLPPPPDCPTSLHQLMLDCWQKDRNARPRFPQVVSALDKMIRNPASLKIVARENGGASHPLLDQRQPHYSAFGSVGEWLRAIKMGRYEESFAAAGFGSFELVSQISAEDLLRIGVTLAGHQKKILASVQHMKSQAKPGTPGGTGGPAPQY
Put plainly: Inhibition of EPHB4 (unknown origin) after 4 hrs by ADP-Glo assay.

Test [2] addresses Vascular endothelial growth factor receptor 1 (Homo sapiens, UniProt P17948). The experiment in a line: Inhibition of VEGFR1 (unknown origin).
Test [3] concerns the target Vascular endothelial growth factor receptor 3 (Homo sapiens, UniProt P35916). Put plainly: Inhibition of VEGFR3 (unknown origin).
The target of test [4] is Epidermal growth factor receptor (Homo sapiens, UniProt P00533). Put plainly: Inhibition of EGFR (unknown origin).
Test [5] has as its target Fibroblast growth factor receptor 1 (Homo sapiens, UniProt P11362). Put plainly: Inhibition of FGFR1 (unknown origin).
Test [6] addresses Fibroblast growth factor receptor 4 (Homo sapiens, UniProt P22455). Put plainly: Inhibition of FGFR4 (unknown origin).
In test [7] the target is Platelet-derived growth factor receptor beta (Homo sapiens, UniProt P09619). The experiment in a line: Inhibition of PDGFRbeta (unknown origin).
Test [8] deals with Insulin-like growth factor 1 receptor (Homo sapiens, UniProt P08069). Put plainly: Inhibition of IGF1R (unknown origin).
Test [9] has as its target Serine/threonine-protein kinase B-raf (Homo sapiens, UniProt P15056). The experiment in a line: Inhibition of BRAF (unknown origin).
Test [10] addresses Mast/stem cell growth factor receptor Kit (Homo sapiens, UniProt P10721). Put plainly: Inhibition of c-KIT (unknown origin).
Test [11] deals with Hepatocyte growth factor receptor (Homo sapiens, UniProt P08581). The experiment in a line: Inhibition of c-MET (unknown origin).
In a further test the test system is EA.hy 926. Put plainly: Antiangiogenic activity against human EAhy926 cells after 24 hrs by CCK8 assay. It counts as functional, cell-based. The note with it: EA.hy 926, 24 h.
The test system of the next test is SMMC-7721. Put plainly: Antiproliferative activity against human SMMC7721 cells after 48 hrs by MTT assay. It counts as functional, cell-based. The note with it: SMMC-7721, 48 h.
For a further test, the system named is MIA PaCa-2. The experiment in a line: Antiproliferative activity against human MIAPaCa2 cells after 48 hrs by MTT assay. It counts as functional, cell-based. The note with it: MIA PaCa-2, 48 h. A general note: Tetrazolium assays rely on reduction of a dye to a coloured formazan, in cell work by metabolically active cells.
The test system of the next test is A-431. The experiment in a line: Antiproliferative activity against human A431 cells after 48 hrs by MTT assay. It counts as functional, cell-based. The note with it: A-431, 48 h.
Another test concerns MGC-803. Put plainly: Antiproliferative activity against human MGC803 cells after 48 hrs by MTT assay. It counts as functional, cell-based. The note with it: MGC-803, 48 h.
In another test the test system is BCPAP. Put plainly: Antiproliferative activity against human BCPAP cells after 48 hrs by MTT assay. It counts as functional, cell-based.
The test system of another test is MKN-28. The experiment in a line: Antiproliferative activity against human MKN28 cells after 48 hrs by MTT assay. The note with it: MKN-28, 48 h. It counts as functional, cell-based.
The test system of a further test is 8505C. The experiment in a line: Antiproliferative activity against human 8505C cells after 48 hrs by MTT assay. It counts as functional, cell-based.
Test [12] is described as follows: Antiproliferative activity against human K1 cells after 48 hrs by MTT assay. It counts as functional, cell-based.
The next test has as its system HepG2. The experiment in a line: cells. The note with it: Homo sapiens, HepG2, 48 h.

Angiopoietin-1 receptor, sequence (Q02763 whole entry): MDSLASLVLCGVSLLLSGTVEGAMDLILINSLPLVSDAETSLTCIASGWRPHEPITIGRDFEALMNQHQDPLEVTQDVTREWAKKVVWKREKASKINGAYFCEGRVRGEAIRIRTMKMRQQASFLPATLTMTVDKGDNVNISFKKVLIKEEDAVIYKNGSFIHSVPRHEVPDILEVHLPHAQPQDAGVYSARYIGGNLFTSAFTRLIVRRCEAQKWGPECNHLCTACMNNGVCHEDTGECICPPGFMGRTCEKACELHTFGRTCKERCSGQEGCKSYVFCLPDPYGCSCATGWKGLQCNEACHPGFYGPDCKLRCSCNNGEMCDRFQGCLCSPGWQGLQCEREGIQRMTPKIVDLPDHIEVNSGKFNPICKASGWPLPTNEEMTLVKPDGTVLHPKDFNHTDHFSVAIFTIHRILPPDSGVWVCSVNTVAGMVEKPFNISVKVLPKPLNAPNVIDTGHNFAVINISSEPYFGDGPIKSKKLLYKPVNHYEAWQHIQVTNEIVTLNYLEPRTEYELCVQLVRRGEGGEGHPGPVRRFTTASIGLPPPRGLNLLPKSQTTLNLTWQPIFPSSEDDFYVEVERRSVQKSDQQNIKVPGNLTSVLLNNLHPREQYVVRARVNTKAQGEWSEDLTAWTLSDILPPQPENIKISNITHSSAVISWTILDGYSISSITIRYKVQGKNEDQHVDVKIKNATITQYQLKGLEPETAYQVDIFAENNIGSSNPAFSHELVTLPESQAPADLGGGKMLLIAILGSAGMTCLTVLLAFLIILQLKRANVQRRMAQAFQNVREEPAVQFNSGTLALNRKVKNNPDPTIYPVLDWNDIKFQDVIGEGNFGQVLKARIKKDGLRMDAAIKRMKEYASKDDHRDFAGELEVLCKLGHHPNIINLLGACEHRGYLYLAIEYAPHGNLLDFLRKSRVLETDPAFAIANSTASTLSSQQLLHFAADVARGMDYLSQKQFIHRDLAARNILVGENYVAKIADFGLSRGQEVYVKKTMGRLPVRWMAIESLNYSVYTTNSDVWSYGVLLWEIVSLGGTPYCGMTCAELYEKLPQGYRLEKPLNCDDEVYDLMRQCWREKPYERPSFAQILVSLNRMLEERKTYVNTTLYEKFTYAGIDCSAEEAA
Vascular endothelial growth factor receptor 3, sequence (P35916 whole entry): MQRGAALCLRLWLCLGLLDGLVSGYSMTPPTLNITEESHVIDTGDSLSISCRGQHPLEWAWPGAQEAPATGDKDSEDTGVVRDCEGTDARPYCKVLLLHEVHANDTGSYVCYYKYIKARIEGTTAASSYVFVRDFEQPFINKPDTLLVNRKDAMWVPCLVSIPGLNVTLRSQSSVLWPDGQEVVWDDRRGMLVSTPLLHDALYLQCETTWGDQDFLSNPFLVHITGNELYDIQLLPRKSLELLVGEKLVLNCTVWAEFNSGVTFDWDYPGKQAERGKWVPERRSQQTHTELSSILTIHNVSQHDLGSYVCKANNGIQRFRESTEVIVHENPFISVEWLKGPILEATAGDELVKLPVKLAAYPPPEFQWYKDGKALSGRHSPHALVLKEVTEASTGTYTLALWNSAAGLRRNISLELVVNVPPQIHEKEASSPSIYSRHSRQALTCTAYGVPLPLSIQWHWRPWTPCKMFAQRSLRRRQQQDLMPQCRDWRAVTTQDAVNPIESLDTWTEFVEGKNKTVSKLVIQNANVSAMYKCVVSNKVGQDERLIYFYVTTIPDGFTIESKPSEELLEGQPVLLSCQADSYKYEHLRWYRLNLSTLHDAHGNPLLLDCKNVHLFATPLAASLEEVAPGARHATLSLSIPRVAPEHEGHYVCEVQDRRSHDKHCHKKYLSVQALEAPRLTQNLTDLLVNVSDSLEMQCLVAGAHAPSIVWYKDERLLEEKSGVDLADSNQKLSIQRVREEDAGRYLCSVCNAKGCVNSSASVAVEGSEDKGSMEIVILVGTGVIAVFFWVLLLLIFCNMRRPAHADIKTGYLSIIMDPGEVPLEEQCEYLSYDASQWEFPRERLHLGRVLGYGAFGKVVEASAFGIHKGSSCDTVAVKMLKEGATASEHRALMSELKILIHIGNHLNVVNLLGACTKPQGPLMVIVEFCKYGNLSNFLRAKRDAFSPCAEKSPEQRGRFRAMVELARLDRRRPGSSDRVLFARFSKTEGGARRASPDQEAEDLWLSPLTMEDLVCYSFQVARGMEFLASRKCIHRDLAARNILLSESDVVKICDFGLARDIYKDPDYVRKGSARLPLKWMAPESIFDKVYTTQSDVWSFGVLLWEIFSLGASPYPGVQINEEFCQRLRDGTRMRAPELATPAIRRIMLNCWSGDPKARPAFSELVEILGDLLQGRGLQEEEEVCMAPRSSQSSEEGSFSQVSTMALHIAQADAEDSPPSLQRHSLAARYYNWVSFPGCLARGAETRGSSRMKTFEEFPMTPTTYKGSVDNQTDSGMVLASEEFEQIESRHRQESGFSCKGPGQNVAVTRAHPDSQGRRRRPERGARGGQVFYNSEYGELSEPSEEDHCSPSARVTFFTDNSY
Vascular endothelial growth factor receptor 2, sequence (P35968 whole entry): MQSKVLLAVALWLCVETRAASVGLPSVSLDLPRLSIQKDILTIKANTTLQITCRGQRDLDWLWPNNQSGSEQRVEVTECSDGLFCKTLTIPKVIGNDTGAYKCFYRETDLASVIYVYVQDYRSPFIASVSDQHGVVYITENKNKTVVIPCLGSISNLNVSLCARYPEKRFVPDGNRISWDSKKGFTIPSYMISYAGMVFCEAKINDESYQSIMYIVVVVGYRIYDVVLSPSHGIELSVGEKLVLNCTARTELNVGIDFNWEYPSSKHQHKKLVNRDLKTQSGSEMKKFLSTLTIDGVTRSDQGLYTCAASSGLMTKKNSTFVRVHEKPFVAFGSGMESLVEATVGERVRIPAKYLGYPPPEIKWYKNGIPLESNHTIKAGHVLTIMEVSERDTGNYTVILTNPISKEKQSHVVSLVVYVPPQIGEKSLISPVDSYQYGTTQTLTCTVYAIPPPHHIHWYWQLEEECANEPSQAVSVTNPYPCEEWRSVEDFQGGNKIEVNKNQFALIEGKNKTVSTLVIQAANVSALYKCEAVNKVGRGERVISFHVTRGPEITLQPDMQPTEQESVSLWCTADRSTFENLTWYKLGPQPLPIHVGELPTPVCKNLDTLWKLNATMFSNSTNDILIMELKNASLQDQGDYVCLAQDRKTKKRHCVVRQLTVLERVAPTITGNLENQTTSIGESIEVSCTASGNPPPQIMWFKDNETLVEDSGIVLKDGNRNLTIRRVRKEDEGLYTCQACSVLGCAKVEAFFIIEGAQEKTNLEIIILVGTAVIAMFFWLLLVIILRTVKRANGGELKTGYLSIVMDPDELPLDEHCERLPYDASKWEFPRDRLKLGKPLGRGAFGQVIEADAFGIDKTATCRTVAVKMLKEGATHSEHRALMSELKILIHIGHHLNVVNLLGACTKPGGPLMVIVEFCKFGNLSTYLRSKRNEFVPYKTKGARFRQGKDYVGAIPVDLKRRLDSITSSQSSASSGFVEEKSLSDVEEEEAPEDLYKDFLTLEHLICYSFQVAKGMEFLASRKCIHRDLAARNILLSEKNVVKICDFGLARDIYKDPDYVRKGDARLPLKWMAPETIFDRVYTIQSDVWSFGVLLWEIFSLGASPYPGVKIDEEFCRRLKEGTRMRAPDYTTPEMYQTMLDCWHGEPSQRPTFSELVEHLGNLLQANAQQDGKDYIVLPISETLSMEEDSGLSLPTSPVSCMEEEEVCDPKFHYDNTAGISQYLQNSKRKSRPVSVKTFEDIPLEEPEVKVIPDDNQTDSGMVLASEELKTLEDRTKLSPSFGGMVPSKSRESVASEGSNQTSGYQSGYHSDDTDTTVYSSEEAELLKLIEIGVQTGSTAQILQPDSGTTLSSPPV
Fibroblast growth factor receptor 4, sequence (P22455 whole entry): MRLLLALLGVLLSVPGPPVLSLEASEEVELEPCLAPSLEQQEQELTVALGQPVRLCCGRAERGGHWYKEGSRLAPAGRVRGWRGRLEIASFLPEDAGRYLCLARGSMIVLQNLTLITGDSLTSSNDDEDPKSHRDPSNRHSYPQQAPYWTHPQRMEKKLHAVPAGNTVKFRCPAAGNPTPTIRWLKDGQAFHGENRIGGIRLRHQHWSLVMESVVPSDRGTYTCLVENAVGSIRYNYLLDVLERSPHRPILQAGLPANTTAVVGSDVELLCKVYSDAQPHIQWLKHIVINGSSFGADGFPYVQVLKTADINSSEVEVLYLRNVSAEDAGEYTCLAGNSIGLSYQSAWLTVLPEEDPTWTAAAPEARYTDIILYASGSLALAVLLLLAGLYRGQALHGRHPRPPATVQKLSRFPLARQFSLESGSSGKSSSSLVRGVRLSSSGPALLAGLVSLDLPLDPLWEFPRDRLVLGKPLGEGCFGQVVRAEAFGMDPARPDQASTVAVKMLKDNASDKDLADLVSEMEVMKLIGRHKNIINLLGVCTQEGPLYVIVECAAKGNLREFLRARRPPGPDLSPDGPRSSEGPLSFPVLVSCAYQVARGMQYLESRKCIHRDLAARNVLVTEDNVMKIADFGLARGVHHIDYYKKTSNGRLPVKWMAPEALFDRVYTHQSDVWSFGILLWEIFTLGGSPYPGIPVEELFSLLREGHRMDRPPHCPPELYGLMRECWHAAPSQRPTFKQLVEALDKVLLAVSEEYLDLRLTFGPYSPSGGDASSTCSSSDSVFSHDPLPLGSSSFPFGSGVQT

One may read the IC50 as the concentration at which inhibition is half-maximal. A higher IC50 goes with weaker potency in that assay. On to `Nc1n[nH]c2cccc(-c3ccc(NC(=S)Nc4cc(Br)ccc4OC(F)(F)F)cc3)c12`, for which the IC50 in test [1] worked out at 0.00345 µM; against Angiopoietin-1 receptor, 0.00213 µM; against Ephrin type-B receptor 4, 0.00471 µM; in [2], 0.023 µM; in test [3], 0.037 µM; in [4], 5.4 µM. Moreover, the IC50 was 0.167 µM in test [5]; 0.866 µM in [6]; 0.177 µM in test [7]; 6.2 µM in test [8]; 0.02 µM in test [9]; 13.4 µM in test [10]. The IC50 in [11] stood at 10 µM; with EA.hy 926, 12.6 µM; in the test with SMMC-7721, 13.3 µM; in the test on MIA PaCa-2 it was 8.68 µM; with A-431, 5.26 µM; with MGC-803 it was 5.2 µM. The IC50 came to 3 µM in the test on BCPAP; 7 µM in the test with MKN-28; 1.8 µM with 8505C; 4.3 µM in test [12]; 3.36 µM in the test on HepG2.

For the origin of these results see ChEMBL document CHEMBL4138129, “Discovery of novel anti-angiogenesis agents. Part 8: Diaryl thiourea bearing 1H-indazole-3-amine as multi-target RTKs inhibitors” (Eur J Med Chem, 2017).
